Entries after “also recorded” stand apart in the source; their conditions may differ. Like-named read-outs stand apart in the source and are kept apart here.
Columns and labels:
[1] = Measured pKa, log P and log D (determined by pION, Inc.); assay type: physicochemical; settings: for pKa: read-out: pKa (meas.)
Procedure: Measured pKa, log P, and log D values were determined by pION, Inc. (Woburn, Mass.).

Human H3 Receptor [2] = target: T1, Human H3 Receptor (Homo sapiens, UniProt Q9Y5N1); assay: [3H]-N-Methylhistamine binding, membranes of H3 receptor-expressing SK-N-MC cells; settings: 0.8 nM [3H]-N-methylhistamine, 60 min at 25° C., average of results; read-out: Ki
T1 construct: expressed in transfected cells
Procedure: (§1) Cells were grown to about 70% to 80% confluence and removed from the plate with trypsin and pelleted in a clinical centrifuge. The pellet was then re-suspended in 400 μL of complete media and transferred to an electroporation cuvette with a 0.4 cm gap between the electrodes (Bio-Rad #165-2088). One μg supercoiled H3 receptor cDNA was added to the cells and mixed gently. The voltage for the electroporation was set at 0.25 kV and the capacitance was set at 960 μF. After electroporation the cells were diluted with 10 mL of complete media and were plated onto four 10 cm dishes at the following ratios: 1:20, 1:10, 1:5, and 1:2. The cells were allowed to recover for 24 h before adding 600 μg G-418. Colonies that survived selection were grown and tested. SK-N-MC cells were used because they give efficient coupling for inhibition of adenylate cyclase. The clones that gave the most robust inhibition of adenylate cyclase in response to histamine were used for further study.
Cell pellets from histamine H3 receptor-expressing SK-N-MC cells were homogenized in 50 mM TrisHCl/0.5 mM EDTA. Supernatants from an 800 g spin were collected and were recentrifuged at 30,000 g for 30 min. Pellets were re-homogenized in 50 mM Tris/5 mM EDTA (pH 7.4). Membranes were incubated with 0.8 nM [^3H]-N-methylhistamine plus/minus test compounds for 60 min at 25° C. and were harvested by rapid filtration over GF/C glass fiber filters (pretreated with 0.3% polyethylenimine) followed by four washes with buffer. Filters were added to 5 mL of scintillation cocktail, and the signal was then counted on a liquid scintillation counter.

Human H3 Receptor [3] = target: T1, Human H3 Receptor; assay: Cyclic AMP accumulation, SK-N-MC cells with reporter construct and human H3 receptor (pA2); assay type: cell-based; settings: pA2, average of results
Procedure: as §1, with “The pellet was then re-suspended in 400 μL of complete media and transferred to an electroporation cuvette with a 0.4 cm gap between the electrodes (Bio-Rad #165-2088).” left out, “The cells were allowed to recover for 24 h before adding 600 μg G-418.” left out
Sublines of SK-N-MC cells were created that expressed a reporter construct and the human H3 receptor.

[4] = Pharmacokinetics and bioanalysis in the rat; assay type: in vivo, male Sprague Dawley Rats; settings: for AUC(0-inf): read-out: AUCINF (h-μmol/mL)
Procedure: One group of six male Sprague Dawley Rats (approx. 300 g body weight; three animals per time point) was used. They were group-housed, provided food and water ad libitum, and were maintained on a 12-h light and dark cycle. Animals were acclimatized for at least 7 days after receipt from the vendor prior to investigations.
For oral dosing, test compounds were formulated at 1 mg/mL in 0.5% hydroxypropyl methyl cellulose and delivered at a dose of 10 mg/kg. Citric acid salt forms (prepared as described for Example 1B) of the test compounds were used. Animals received a bolus dose of 10 mg/kg (10 mL/kg) for each compound via a 16 gauge intragastric gavage. For intravenous dosing, test compounds were formulated at 1 mg/mL in 5% dextrose in water and dosed at 1 mg/kg (1 mL/kg) with a bolus intravenous dose via a 24-gauge Terumo® Surflo® catheter in the lateral tail vein. All dosing solutions were prepared immediately prior to injection.
Blood samples (250 μL) were taken from the lateral tail vein into heparinized Natelson blood collection tubes and expelled into 1.5 mL mcirocentrifuge tubes. The blood samples were centrifuged for 5 min at 14,000 rpm in a micro-centrifuge. Plasma was retained and kept in a −20° C. freezer until analysis by LC-MS/MS.
Data analysis was performed using WinNonlin version 3.3 or 4.0.1. A non -compartmental model (#200 for Extravascular administration and #201 for i.v.) was used to determine the pharmacokinetic parameters shown in Tables 4 and 5 (NA=not applicable or not determined).

[5] = male, Sprague Dawley, iv, i.v. 1 mg/kg, citric acid salt, plasma
[6] = male, Sprague Dawley, oral 10 mg/kg, citric acid salt, plasma
[7] = oral 10 mg/kg, citric acid salt
[8] = compared with isopropyl / cyclobutyl analogs

T1 sequence (Q9Y5N1 whole entry): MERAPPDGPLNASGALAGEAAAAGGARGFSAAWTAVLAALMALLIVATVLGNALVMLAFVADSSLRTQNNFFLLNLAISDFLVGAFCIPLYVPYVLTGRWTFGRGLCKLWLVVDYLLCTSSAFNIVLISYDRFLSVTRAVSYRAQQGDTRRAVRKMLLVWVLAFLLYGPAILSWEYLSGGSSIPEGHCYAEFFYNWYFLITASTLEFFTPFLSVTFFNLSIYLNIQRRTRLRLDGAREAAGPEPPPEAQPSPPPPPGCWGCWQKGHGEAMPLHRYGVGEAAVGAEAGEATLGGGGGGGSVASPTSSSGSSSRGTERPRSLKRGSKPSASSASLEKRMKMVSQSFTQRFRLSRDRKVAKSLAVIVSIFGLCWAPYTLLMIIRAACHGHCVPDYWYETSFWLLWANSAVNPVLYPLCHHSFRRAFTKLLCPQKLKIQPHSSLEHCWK

Structure (SMILES) | logD [1] | logP [1] | pKa [1] | pKa ([1]; second value) | Ki (Human H3 Receptor [2]) [nM] | Kb (Human H3 Receptor [3]) [nM] | CI ([4]; i.v. 1 mg/kg, citric acid salt) [mL/min/kg] | Cmax [4, 5] [nM] | AUC(0-inf) [4, 5] [µM·h] | Cmax [4, 6] [nM] | Tmax [4, 6] [h] | half-life [4, 6] [h] | AUC(0-inf) [4, 6] [µM·h] | CI [4, 7] [mL/min/kg] | Vd [4, 7] [L/kg] | other results
O=C(c1ccc(CN2CCOCC2)cc1)N1CCN(C2CCC2)CC1 [Comparative Example 2, (4-Cyclobutyl-piperazin-1-yl)-(4-morpholin-4-ylmethyl-phenyl) -methanone] | 1.77 | 2.09 | 7.4 | 6.5 | 1 | 0.316 | – | – | – | – | – | – | – | – | – | –
CC(C)N1CCN(C(=O)c2ccc(CN3CCC(F)CC3)cc2)CC1.O=C(O)CC(O)(CC(=O)O)C(=O)O [Comparative Example 3B, [4-(4-Fluoro-piperidin-1-ylmethyl)-phenyl]-(4-isopropyl-piperazin-1-yl)-methanone citrate salt] | – | – | – | – | 1 | 0.251 | 44.2 | 1490 | 1.16 | 160 | 1.33 | 8.22 | 1.95 | 270 | 180 | Vd ([4]; i.v. 1 mg/kg, citric acid salt): 29.2 L/kg; T1/2 ([4]; i.v. 1 mg/kg, citric acid salt, plasma): 7.60 h
O=C(c1ccc(CN2CCC(F)CC2)cc1)N1CCN(C2CCC2)CC1 [Comparative Example 4, (4-Cyclobutyl-piperazin-1-yl)-[4-(4-fluoro-piperidin-1-ylmethyl)-phenyl]-methanone] | – | – | – | – | 0.7 | 0.1 | – | – | – | – | – | – | – | – | – | –
CC(C)N1CCN(C(=O)c2ccc(CN3CCOC(CO)C3)cc2)CC1 (stereo not drawn) [Comparative Example 6, [4-(2-Hydroxymethyl-morpholin-4-ylmethyl)-phenyl]-(4-isopropyl-piperazin-1-yl)-methanone] | – | – | – | – | 6 | 6.31 | – | – | – | – | – | – | – | – | – | –
O=C(c1ccc(CN2CCOCC2)cc1)N1CCN(C2CC2)CC1 [Example 1, (4-Cyclopropyl-piperazin-1-yl)-(4-morpholin-4-ylmethyl-phenyl) -methanone] | 0.86 | 0.89 | 6.5 | 5.3 | 5.4 | 3.98 | – | – | – | – | – | – | – | – | – | measured pKa (basicity) relative to calculated value and to isopropyl / cyclobutyl amine analogs [1]: significantly lower; also recorded: significant decrease in basicity
O=C(O)CC(O)(CC(=O)O)C(=O)O.O=C(c1ccc(CN2CCC(F)CC2)cc1)N1CCN(C2CC2)CC1 [Example 2B, (4-Cyclopropyl-piperazin-1-yl)-[4-(4-fluoro-piperidin-1-ylmethyl)-phenyl]-methanone citrate salt] | – | – | – | – | 2 | 1 | 41.4 | 3780 | 1.37 | 420 | 1.67 | 2.72 | 1.91 | 431 | 112 | half-life (T1/2) relative to the comparative examples [4, 8]: shorter T1/2; volume of distribution (Vd) relative to the comparative examples [4, 8]: lower Vd; half-life [4, 5]: 1.11 h; Vd ([4]; male, Sprague Dawley, plasma, iv, i.v. 1 mg/kg, citric acid salt, read-out: Vd): 3.94 L/kg
